This is an account of results in patent publication US10793543B2, “Selective C-KIT kinase inhibitor” (PRECEDO PHARMACEUTICALS CO., LTD, priority 2016, dated 2020).

For orientation: GI50 means the concentration that inhibits growth by half. One may read the IC50 as the concentration that gives 50% inhibition. A high value points to weaker potency in that assay.

Experiment [1] relates to Tel-PDGFRβ-BaF3 cells (PDGFRβ). In words: Cell proliferation, CCK-8, Tel-PDGFRβ-BaF3. The class given is cell-based. To be noted: Mus musculus, 72 hours. An excerpt: (§1) In addition, in the present example, further uses: mouse P210/BaF3 (stably expressing P210 Bcr-Abl mutant gene), mouse Tel-ABL-BaF3 (stably expressing wild-type ABL kinase), mouse Tel-cKit-BaF3 (stably expressing C-KITwild-type kinase), mouse Tel-cKit/V559D-BaF3 (stably expressing C-KIT V559D mutant kinase), mouse Tel-cKit/V559D/V654A-BaF3 (stably expressing C-KIT V559D/V654A mutant kinase), mouse Tel-cKit/N822K-BaF3 (stably expressing C-KIT N822K mutant kinase), mouse Tel-cKit/V654A-BaF3 (stably expressing C-KIT V654A mutant kinase), mouse Tel-cKit/L567P-BaF3 (stably expressing C-KIT L567P mutant kinase), mouse Tel-cKit/T670I-BaF3 (stably expressing C-KIT T670I mutant kinase), mouse Tel-PDGFRα-BaF3 (stably expressing PDGFRα kinase), mouse Tel-PDGFRβ-BaF3 (stably expressing PDGFRβ kinase), mouse Tel-VEGFR2-BaF3 (stably expressing VEGFR2 kinase), mouse Tel-RET-BaF3 (stably expressing RET kinase). The above cell lines were all constructed by our laboratory according to the following method: the kinase region sequences of human P210 Bcr-Abl, ABL, C-KIT, C-KIT V559D, C-KIT V559D/V654A, C-KIT N822K, C-KIT V654A, C-KIT L567P, C-KIT T670I, PDGFRα, PDGFRβ, VEGFR2, RET were amplified respectively by PCR, inserted respectively into MSCV-Puro vectors harboring N-terminal TEL fragment and/or NPM fragment and/or TPR fragment (Clontech), then the vectors were stably transfected into mouse BaF3 cells by retrovirus methods and growth factor IL-3 was removed, eventually obtaining cell lines that are transferred protein (P210 Bcr-Abl, ABL, C-KIT, C-KIT V559D, C-KIT V559D/V654A, C-KIT N822K, C-KIT V654A, C-KIT L567P, C-KIT T670I, PDGFRα, PDGFRβ, VEGFR2, RET)-dependent.
(§2) The cells were incubated for 72 hours, and then the number of viable cells was quantified with a microplate reader by using CCK-8 Cell Viability Assay Kit (purchased from Bestbio Company, Shanghai, China) (CCK-8 can be reduced by dehydrogenase in living cells to a highly water-soluble yellow formazan product, and the amount of formazan produced is proportional to the number of living cells).

Experiment [2] concerns Tel-ABL-BaF3 cells (ABL WT). In words: Cell proliferation, CCK-8, Tel-ABL-BaF3. The format is cell-based. The conditions noted are these: Mus musculus; Tel-ABL-BaF3, ABL WT, 72 hours, CCK-8; read-out: GI50.
Description: In addition, in the present example, further uses: mouse P210/BaF3 (stably expressing P210 Bcr-Abl mutant gene), mouse Tel-ABL-BaF3 (stably expressing wild-type ABL kinase), mouse Tel-cKit-BaF3 (stably expressing C-KITwild-type kinase), mouse Tel-cKit/V559D-BaF3 (stably expressing C-KIT V559D mutant kinase), mouse Tel-cKit/V559D/V654A-BaF3 (stably expressing C-KIT V559D/V654A mutant kinase), mouse Tel-cKit/N822K-BaF3 (stably expressing C-KIT N822K mutant kinase), mouse Tel-cKit/V654A-BaF3 (stably expressing C-KIT V654A mutant kinase), mouse Tel-cKit/L567P-BaF3 (stably expressing C-KIT L567P mutant kinase), mouse Tel-cKit/T670I-BaF3 (stably expressing C-KIT T670I mutant kinase), mouse Tel-PDGFRα-BaF3 (stably expressing PDGFRα kinase), mouse Tel-PDGFRβ-BaF3 (stably expressing PDGFRβ kinase), mouse Tel-VEGFR2-BaF3 (stably expressing VEGFR2 kinase), mouse Tel-RET-BaF3 (stably expressing RET kinase). […]
as §2

Experiment [3] has as its system Tel-cKit/V559D/V654A-BaF3 cells (KIT V559D/V654A). In words: Cell proliferation, CCK-8, Tel-cKit/V559D/V654A-BaF3. The conditions noted are these: Mus musculus, 72 hours. The class given is cell-based.
Description: as §1, §2

Experiment [4] has as its system phosphorylation of C-KIT and pathway proteins in GIST-882 cells. As to the kind of experiment: Effects on cell signaling pathways (phosphorylation), GIST-882. The class given is cell-based, human. To be noted: GIST-882, 0.1 μM, 2 hours.
Another experiment has as its system GIST-T1 cells. As to the kind of experiment: Cell cycle distribution by flow cytometry, GIST-T1. The format is cell-based, human. To be noted: GIST-T1, treated 24 hours. (In flow cytometry, cells or beads pass a laser one at a time.)
In experiment [5] the test system is phosphorylation of C-KIT and pathway proteins in GIST-T1 cells. As to the kind of experiment: Effects on cell signaling pathways (phosphorylation), GIST-T1. To be noted: GIST-T1, 0.1 μM, 2 hours. The format is cell-based, human.
The next experiment deals with T1, protein kinase C-KIT (Homo sapiens, UniProt P10721).
T1 construct: The kinase domain of protein kinase C-KIT was cloned into the insect expression vector pFASTHTA; His tag; made in house; host or cells: SF9 insect cells (Bac-to-Bac baculovirus system)
In words: In vitro enzyme activity assay (ADP-Glo). The class given is biochemical. To be noted: purified C-KIT kinase domain, ATP 10 μM. As for the experimental part:
The IC50 value of Compound 4 against protein kinase C-KIT was determined in an in vitro enzyme activity assay. The kinase domain of protein kinase C-KIT was cloned into the insect expression vector pFASTHTA (purchased from Invitrogen life technologies), and the protein with His tag was expressed using the insect expression system Bac-to-Bac Baculovirus Expression System (purchased from Invitrogen life technologies). The constructed vector was transfected into SF9 packaging virus (purchased from Invitrogen life technologies), and the virus was used to infect SF9 to express the protein. Purification was performed using affinity chromatography.
9 μL (6 ng/μL) of purified C-KIT protein kinase was reacted with 1 μL of the above Compound 4 with 3× gradient dilution (the final concentrations of the drug were 10 μM, 3 μM, 1 μM, 0.3 μM, 0.1 μM, 0.03 μM, 0.01 μM, 0.003 μM) at room temperature for 4 hours;
2 μL of ATP and 3 μL of substrate, Poly(4:1 Glu, Tyr)Peptide (Promega, US), were added (final concentrations were 10 μM and 0.2 μg/μL, respectively), and reacted at 37° C. for 1 hour; […]
10 μL of kinase detection reagent was added to transfer ADP into ATP, and the newly synthesized ATP was detected by using coupled luciferase/fluorescein reaction, then the IC50 values were calculated by using a plotting method based on the Envision reading.
(In ADP-Glo the light output rises with the ADP produced.)

Another experiment deals with GIST-882 cells. As to the kind of experiment: Cell cycle distribution by flow cytometry, GIST-882. The class given is cell-based, human. The conditions noted are these: GIST-882, treated 48 hours.
The next experiment deals with Ku812 cells (Bcr-Abl). As to the kind of experiment: Cancer cell proliferation, CCK-8, Ku812. The format is cell-based. To be noted: Homo sapiens; Ku812, Bcr-Abl, 72 hours, CCK-8; read-out: GI50.
Description: (§3) In the present example, the following cells were used: chronic myelogenous leukemia cells K562 (expressing P210 Bcr-Abl mutant gene), human megakaryocytic leukemia cells MEG-01 (expressing P210 Bcr-Abl mutant gene), human peripheral blood basophilic leukemia cells Ku812 (expressing Bcr-Abl mutant gene) (all above cells purchased from ATCC, USA), human gastrointestinal stromal tumor cell lines GIST-T1 cells (expressing wild-type C-KIT gene) (purchased from Cosmo Bio Co., Ltd., Japan), human gastrointestinal stromal tumor cell lines GIST-882 cells (expressing wild-type C-KIT gene) (presented by the Professor Gray Lab, Dana-Farber Cancer Institute, Harvard University, USA), mouse pro-B cells BaF3 (purchased from ATCC, USA).
as §2

For experiment [6], the system named is cells expressing wild-type C-KIT kinase. In words: Cell proliferation, C-KIT cells. The format is cell-based. The conditions noted are these: cells expressing wild-type C-KIT kinase, summary of Table 2.
Description: as §3, §1, §2

T1 sequence (P10721 589-937 limits assumed): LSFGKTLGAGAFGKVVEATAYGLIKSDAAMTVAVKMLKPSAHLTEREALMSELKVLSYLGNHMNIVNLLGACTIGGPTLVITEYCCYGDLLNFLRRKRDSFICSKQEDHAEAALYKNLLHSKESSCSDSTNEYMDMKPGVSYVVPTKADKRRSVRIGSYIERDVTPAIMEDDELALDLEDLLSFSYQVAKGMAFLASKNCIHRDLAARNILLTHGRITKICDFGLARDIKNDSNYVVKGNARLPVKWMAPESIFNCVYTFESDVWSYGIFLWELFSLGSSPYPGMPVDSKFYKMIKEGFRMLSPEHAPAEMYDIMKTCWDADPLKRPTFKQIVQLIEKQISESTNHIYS

With `Cc1ccc(NC(=O)c2cccc(C(F)(F)F)c2)cc1OC1CCN(C(=O)c2ccncc2)CC1` [Compound 4], the GI50 in experiment [1] is 27 nM; in experiment [2] it was 5.06 µM; in experiment [3], 1050 nM; in the experiment on Ku812 cells (Bcr-Abl), 6.71 µM; in experiment [6], below 500 nM. Further, the “phosphorylation of C-KIT oncogenic protein” value in experiment [4] and in [5] was “significantly inhibiting” in each case. Besides, the “phosphorylation of proteins such as Stat5, AKT, ErK, S6K, S6, PDGFRα” value in [4] and in [5] was “significant inhibitory effects” throughout. Also, the “effect on cell cycle” value in the experiment with GIST-T1 cells and in the experiment on GIST-882 cells was “significantly blocked in the GO-G1 phase” throughout. For the same compound, the midpoint of inhibition on protein kinase C-KIT, the IC50, lay at 99 nM.
